{
  "source": "patent US11674959B2",
  "about": "“Methods for identifying and preparing pharmaceutical agents for activating Tie1 and/or Tie2 receptors” (The Johns Hopkins University, priority 2017, dated 2023)",
  "key": {"MEC monolayers": {"tested_on": "MEC monolayers", "experiment": "Immunofluorescence of MEC monolayers for VE-cadherin and F-actin", "format": "cell-based, human", "details": "200 ng/ml Ang2, increasing concentrations of AXT107", "method": "The jaggedness of these junctions is related to the structure of actin within the cell.\nGlass-bottomed, 96-well plates with half well size were coated with 10 μg/ml FN1 for two hours at 37° C. The FN1 solution was then removed by aspiration and the plate seeded with 4×10^3 MECs in EGM-2MV media. After twenty-four hours, the cells were washed once with dPBS containing Ca^2+ and Mg^2+ to remove dead cells and the cells were allowed to grow for an additional twenty-four hours. For three-hour duration treatments (i.e., VE-cadherin), cells were washed twice with dPBS containing Ca^2+ and Mg^2+ and serum starved in EBM-2 for ninety minutes. The media was then removed and the cells were treated for three hours with 100 μl of EBM-2 media containing 200 ng/ml Ang2 or PBS and varying concentrations of AXT107 or DMSO. For fifteen minute-treated samples (i.e., phospho-Tie2), the cells were serum starved in EBM-2 media for 165 minutes, incubated for ninety minutes with varying concentrations of AXT107 or DMSO in EBM-2, and finally stimulated for fifteen minutes with 200 ng/ml Ang2 or PBS supplemented with peptide to retain the same concentrations. These times were chosen so that both treatment procedures would be completed at the same time. The cells were then washed twice with cold dPBS containing Ca^2+ and Mg^2+ and fixed in 10% neutral buffered formalin for fifteen minutes. […]"}, "[1]": {"experiment": "Self-assembly of peptide in media", "format": "physicochemical", "details": "added to media"}, "[2]": {"tested_on": "myosin light chain 2 (MLC2)", "experiment": "Western blot of MEC lysates for pMLC2", "format": "cell-based, human", "details": "AXT107 and 200 ng/ml Ang2", "method": "Phosphorylation of Tie2 is known to stimulate the Rap1-GTPase pathway, leading to a reduction in the phosphorylation of the downstream motor protein myosin light chain 2 (MLC2) associated with actin rearrangement.\nFor Ang1/2 signaling investigations, cell culture dishes (10 cm diameter) were coated with 5 μg/ml fibronectin (FN1; Sigma-Aldrich, St. Louis, Mo.) for two hours at 37° C. The FN1 solution was then removed by aspiration and 5×10^6 microvascular endothelial cells (MECs; Lonza, Walkersville, Md.) were plated in EGM-2MV media (Lonza) and cultured for forty-eight hours at 37° C. The cells were then serum starved for sixteen hours in serum-free EGM-2 base media (Lonza). AXT107 (0-100 μM, as indicated) was subsequently added to each culture and incubated for seventy-five minutes at 37° C. […] Specific proteins were identified by Western blot, using the following primary antibodies: Cell Signaling—phospho-Tie2 (Y992) (Cat #: 4221), Tie2 (Cat #: 7403), phospho-Stat3 (Y705) (Cat #: 4113), Stat3 (Cat #: 4904), phospho-Akt (S473) (Cat #: 4058), Akt (Cat #: 9272), phospho-p44/42 MAPK (T202/Y204) (Cat #: 4370), p44/42 MAPK (Cat #: 4695); BD Transduction Laboratories—β1 integrin (Cat #: 610467); Millipore—α5 integrin (Cat #: AB1928) and detected with HRP-conjugated goat anti-rabbit and sheep anti-mouse secondary antibodies (GE healthcare)."}, "[3]": {"biological_target": "T1, α5 and β1 integrin subunits (Homo sapiens, UniProt P05556+P08648)", "T1 construct": "host or cells: human dermal microvascular endothelial cells (MECs)", "T1 sequence (P08648 42-894 limits assumed)": "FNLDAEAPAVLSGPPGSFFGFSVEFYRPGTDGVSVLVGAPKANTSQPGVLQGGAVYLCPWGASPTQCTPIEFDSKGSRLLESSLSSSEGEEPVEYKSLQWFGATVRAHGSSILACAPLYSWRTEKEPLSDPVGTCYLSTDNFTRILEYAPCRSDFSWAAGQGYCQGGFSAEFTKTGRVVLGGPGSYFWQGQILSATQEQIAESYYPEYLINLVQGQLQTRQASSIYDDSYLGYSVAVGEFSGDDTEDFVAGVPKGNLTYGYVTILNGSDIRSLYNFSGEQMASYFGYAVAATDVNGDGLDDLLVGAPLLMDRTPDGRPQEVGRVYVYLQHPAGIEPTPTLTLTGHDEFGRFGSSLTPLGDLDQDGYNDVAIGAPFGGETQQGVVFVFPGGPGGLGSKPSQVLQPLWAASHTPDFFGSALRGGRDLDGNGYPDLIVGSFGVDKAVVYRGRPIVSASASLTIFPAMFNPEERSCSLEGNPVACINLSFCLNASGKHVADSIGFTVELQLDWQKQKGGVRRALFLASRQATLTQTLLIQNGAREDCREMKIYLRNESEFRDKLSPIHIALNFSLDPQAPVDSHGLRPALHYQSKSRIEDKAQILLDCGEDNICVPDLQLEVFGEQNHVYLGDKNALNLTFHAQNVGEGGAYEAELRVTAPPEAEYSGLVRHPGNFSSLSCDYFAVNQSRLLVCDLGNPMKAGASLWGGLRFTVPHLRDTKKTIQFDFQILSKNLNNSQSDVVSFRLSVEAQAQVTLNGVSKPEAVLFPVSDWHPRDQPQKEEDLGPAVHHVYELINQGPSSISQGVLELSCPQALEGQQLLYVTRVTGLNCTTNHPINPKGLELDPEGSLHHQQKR", "T1 sequence (P08648 895-1049 limits assumed)": "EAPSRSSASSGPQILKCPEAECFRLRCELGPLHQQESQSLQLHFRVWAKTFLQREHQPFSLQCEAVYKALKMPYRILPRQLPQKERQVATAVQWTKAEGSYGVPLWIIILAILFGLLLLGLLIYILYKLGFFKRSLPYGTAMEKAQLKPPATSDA", "T1 sequence (P05556 21-798)": "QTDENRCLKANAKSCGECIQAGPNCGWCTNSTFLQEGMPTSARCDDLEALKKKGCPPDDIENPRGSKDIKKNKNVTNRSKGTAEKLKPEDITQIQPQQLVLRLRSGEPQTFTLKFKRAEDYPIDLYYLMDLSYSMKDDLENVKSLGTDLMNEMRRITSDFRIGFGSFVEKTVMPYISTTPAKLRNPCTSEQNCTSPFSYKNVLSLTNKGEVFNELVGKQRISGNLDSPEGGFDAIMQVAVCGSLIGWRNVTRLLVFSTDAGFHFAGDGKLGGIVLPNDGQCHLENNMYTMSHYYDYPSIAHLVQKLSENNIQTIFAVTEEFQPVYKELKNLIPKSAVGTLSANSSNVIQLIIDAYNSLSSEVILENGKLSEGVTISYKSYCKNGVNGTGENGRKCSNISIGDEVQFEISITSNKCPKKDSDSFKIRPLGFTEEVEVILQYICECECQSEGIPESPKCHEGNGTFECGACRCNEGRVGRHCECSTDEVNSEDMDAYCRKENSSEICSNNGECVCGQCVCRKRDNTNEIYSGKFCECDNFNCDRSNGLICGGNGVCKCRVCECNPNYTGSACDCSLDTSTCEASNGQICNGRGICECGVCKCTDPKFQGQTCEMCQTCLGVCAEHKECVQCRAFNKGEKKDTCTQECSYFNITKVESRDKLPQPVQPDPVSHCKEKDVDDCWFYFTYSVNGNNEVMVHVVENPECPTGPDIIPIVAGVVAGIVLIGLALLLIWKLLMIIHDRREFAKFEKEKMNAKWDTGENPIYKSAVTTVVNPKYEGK", "experiment": "Duolink protein interaction analysis of α5 and β1 integrin in MEC monolayers", "format": "cell-based", "details": "100 μM AXT107 compared to vehicle", "method": "Additionally, changes in the interaction between the α5 and β1 subunits were further investigated using Duolink™ technology which can visualize individual interactions between α5 and β1 integrin subunits as distinct spots by fluorescence microscopy.\nGlass bottom, 96-well plates were coated with FN1, seeded with MECs, as described above for the immunofluorescence experiments. After growing for forty-eight hours, cells were serum starved for three hours, treated with 100 μM AXT107 or DMSO vehicle for ninety minutes, washed twice with dPBS containing Ca^2+ and Mg^2+, and fixed in 10% neutral buffered formalin. Cells were blocked in 5% normal goat serum; 0.3% Triton X-100 in dPBS containing Ca^2+ and Mg^2+ for one hour and incubated overnight at 4° C. with rabbit anti-α5 integrin and mouse anti-β1 integrin antibodies in PBS containing Ca^2+ and Mg^2+ with 1% BSA and 0.1% Triton X-100. Interaction spots were developed using DUOLINK green detection reagent according to the manufacturer's instructions and detected using the BD pathway 855 system."}},
  "data": [
    {"sequence": "LRRFSTAPFAFIDINDVINF [AXT107]", "values": [
      {"measurement": "Actin fiber arrangement", "setting": "MEC monolayers", "result": "became more cortical with increasing concentrations of AXT107"},
      {"measurement": "Distribution of VE-cadherin at junctions", "setting": "MEC monolayers", "result": "became progressively smoother with increasing concentrations of AXT107"},
      {"measurement": "Self-assembly in media", "setting": "[1]", "result": "self-assemble into peptide complexes when added to media"},
      {"measurement": "Phosphorylation of MLC2", "setting": "[2]", "result": "reduced in a dose-dependent manner"},
      {"measurement": "Interactions between α5 and β1 integrin subunits (Duolink)", "setting": "[3]", "result": "significantly reduced"}
    ]}
  ]
}
